Laboratory results reported in patent US20050009809A1, “Acridine derivatives and their use as medicaments” (priority 2003, published 2005).
Converted amounts (≈) assume the structure as drawn. Like-named read-outs stand apart in the source and are kept apart here.

How the values were obtained:
[1] = Saturation solubility in water; conditions: for solubility: water, thermodynamic from solid; for Water solubility compared to the comparison substances: versus comparison substances of WO0208194
Protocol: The saturation solubility in water is determined as described below. For incipient dissolution of the substances and to improve wetting of the samples, at most 1% of DMSO is added. To check the content, an HPLC-UV method was used.

[2] = tested on: human cervical carcinoma cell line KB/HeLa; assay: XTT proliferation assay, KB/HeLa; format: cell-based; conditions: for EC50: Homo sapiens, read-out: XTT proliferation assay, EC50, KB/Hela
Source text: (§1) The substances according to the invention were investigated for their antiproliferative activity in a proliferation test on established tumor cell lines. The test used determines the cellular dehydrogenase activity and makes possible a determination of the cell vitality and indirectly the cell count. The cell lines used are the human cervical carcinoma cell line KB/HeLa (ATCC CCL17), the ovarian adenocarcinoma cell line SKOV-3 (ATCC HTB77), the human glioblastoma cell line […] (NCI 503138) and the lung carcinoma cell line NCI-H460 (NCI 503473).
(§2) The adherently growing tumor cell lines KB/HeLa, SKOV-3, SF-268 and NCI-H460 were cultured under standard conditions in a fumigation incubator at 37° C., 5% CO2 and 95% atmospheric humidity. On experimental day 1, the cells are detached using trypsin/EDTA and pelleted by centrifugation. Subsequently, the cell pellet is resuspended in the respective culture medium at the corresponding cell count and reacted in a 96-well microtiter plate. The plates are then cultured overnight in the fumigation incubator. The test substances are prepared as 1 mg/ml stock solutions in DMSO and diluted to the appropriate concentrations on experimental day 2 using culture medium. The substances in culture medium are then added to the cells and incubated in the fumigation incubator for 45 h. As a control, cells which are not treated with test substance are used. For the XTT assay, 1 mg/ml of XTT (sodium 3′-[1-(phenylaminocarbonyl)-3,4-tetrazolium]-bis(4-methoxy-6-nitro)benzenesulfonic acid) is dissolved in RPMI-1640 medium without Phenol Red. Additionally, a 0.383 mg/ml PMS (N-methyldibenzopyrazine methylsulfate) solution in phosphate-buffered saline solution (PBS) is prepared. On experimental day 4, 75 μl/well of XTT-PMS mixture is pipetted onto the cell plates which in the meantime have been incubated with the test substances for 45 h. For this, shortly before use, the XTT solution is mixed with the PMS solution in the ratio 50:1 (vol:vol). The cell plates are then incubated in the fumigation incubator for a further 3 h and the optical density (OD490 nm) is determined in a photometer. By means of the OD490 nm determined, the percentage inhibition is calculated relative to the control and plotted semilogarithmically in the form of a concentration-action curve. The EC50 is calculated by means of a regression analysis from the concentration-action curve using the program Graphpad Prism.

[3] = tested on: human glioblastoma cell line SF-268; assay: XTT proliferation assay, SF-268; format: cell-based; conditions: for EC50: Homo sapiens, read-out: XTT proliferation assay, EC50, SF-268
Source text: as §1, §2

[4] = tested on: lung carcinoma cell line NCI-H460; assay: XTT proliferation assay, NCI-H460; format: cell-based, human; conditions: for EC50: Homo sapiens, read-out: XTT proliferation assay, EC50, NCI-H460
Source text: as §1, §2

[5] = tested on: ovarian adenocarcinoma cell line SKOV-3; assay: XTT proliferation assay, SKOV-3; format: cell-based, human; conditions: for EC50: Homo sapiens, SK-OV-3, read-out: XTT proliferation assay, EC50, SKOV3
Source text: as §1, §2

[6] = NCI-H460 cells, 45 h incubation

Compound | solubility [1] | EC50 ([2]; KB/HeLa cells, 45 h incubation) | EC50 ([3]; SF-268 cells, 45 h incubation) | EC50 [4, 6] | EC50 ([5]; SKOV-3 cells, 45 h incubation) | further results
O=C(c1c2ccccc2nc2ccccc12)N1CCN(c2cccc(O)c2)CC1 [Acridin-9-yl-[4-(3-hydroxyphenyl)piperazin-1-yl]methanone, reference compound] | 0.03 µg/mL (≈ 0.0782 µM) |  |  |  |  | 
COc1cccc(N2CCN(C(=O)c3c4ccccc4nc4ccccc34)CC2)c1 [Acridin-9-yl-[4-(3-methoxyphenyl)piperazin-1-yl]-methanone, reference compound] | 0.42 µg/mL (≈ 1.06 µM) |  |  |  |  | 
CC(C)NC(=O)Oc1cccc(N2CCN(C(=O)c3c4ccccc4nc4ccccc34)CC2)c1 [Compound 2, 3-[4-(Acridin-9-ylcarbonyl)piperazin-1-yl]phenyl isopropylcarbamate] |  | 0.051 µg/mL (≈ 0.109 µM) | 0.061 µg/mL (≈ 0.13 µM) | 0.062 µg/mL (≈ 0.132 µM) | 0.039 µg/mL (≈ 0.0832 µM) | 
O=C(c1c2ccccc2nc2ccccc12)N1CCN(c2cccc(OP(=O)(O)O)c2)CC1 [Compound 4, Mono-{3-[4-(acridin-9-ylcarbonyl)piperazin-1-yl]phenyl}phosphate] |  |  |  |  |  | XTT proliferation assay, EC50, KB/Hela [2]: 0.018 µg/mL; XTT proliferation assay, EC50, SF-268 [3]: 0.140 µg/mL; XTT proliferation assay, EC50, NCI-H460 [4]: 0.272 µg/mL; XTT proliferation assay, EC50, SKOV3 [5]: 0.208 µg/mL
O=C(c1c2ccccc2nc2ccccc12)N1CCN(c2cccc(OP(=O)(O)Oc3cccc(N4CCN(C(=O)c5c6ccccc6nc6ccccc56)CC4)c3)c2)CC1 [Compound 11, bis-{3-[4-(Acridin-9-ylcarbonyl)piperazin-1-yl]phenyl}phosphate] |  |  |  |  |  | XTT proliferation assay, EC50, KB/Hela ([2]; KB/HeLa cells, 45 h incubation): 0.132 µg/mL; XTT proliferation assay, EC50, SF-268 ([3]; SF-268 cells, 45 h incubation): 0.127 µg/mL; XTT proliferation assay, EC50, NCI-H460 [4, 6]: 0.293 µg/mL; XTT proliferation assay, EC50, SKOV3 ([5]; SKOV-3 cells, 45 h incubation): 0.133 µg/mL
O=C(CCC(=O)N(CCO)CCO)Oc1cccc(N2CCN(C(=O)c3c4ccccc4nc4ccccc34)CC2)c1 [Compound 20, 3-[4-(Acridin-9-ylcarbonyl)piperazin-1-yl]phenyl N,N-bis-(2-hydroxy-ethyl)succinate] |  |  |  |  |  | Absolute solubility in water ([1]; saturation solubility, at most 1% DMSO, HPLC-UV): 143.5 µg/mL; Water solubility compared to the comparison substances [1]: greatly improved water solubilities; XTT proliferation assay, EC50, KB/Hela ([2]; KB/HeLa cells, 45 h incubation): 0.023 µg/mL; XTT proliferation assay, EC50, SF-268 ([3]; SF-268 cells, 45 h incubation): 0.021 µg/mL; XTT proliferation assay, EC50, NCI-H460 [4, 6]: 0.027 µg/mL; XTT proliferation assay, EC50, SKOV3 ([5]; SKOV-3 cells, 45 h incubation): 0.014 µg/mL
CC1(C)OCC(C2OC3OC(C)(C)OC3C2OC(=O)CCC(=O)Oc2cccc(N3CCN(C(=O)c4c5ccccc5nc5ccccc45)CC3)c2)O1 (centres unmarked) [Compound 23, 3-[4-(Acridin-9-ylcarbonyl)piperazin-1-y;]phenyl 5-(2,2-dimethyl-[1,3]dioxolan-4-yl)-2,2-dimethyltetrahydrofuro[2,3-d][1,3]dioxol-6-yl succinate] |  |  |  |  |  | XTT proliferation assay, EC50, KB/Hela ([2]; KB/HeLa cells, 45 h incubation): 0.045 µg/mL; XTT proliferation assay, EC50, SF-268 ([3]; SF-268 cells, 45 h incubation): 0.058 µg/mL; XTT proliferation assay, EC50, NCI-H460 [4, 6]: 0.055 µg/mL; XTT proliferation assay, EC50, SKOV3 ([5]; SKOV-3 cells, 45 h incubation): 0.023 µg/mL
O=C(NCCN1CCOCC1)Oc1cccc(N2CCN(C(=O)c3c4ccccc4nc4ccccc34)CC2)c1 [Compound 29, 3-[4-(Acridin-9-ylcarbonyl)piperazin-1-yl]phenyl (2-morpholin-4-yl-ethyl)carbamate] | 41 µg/mL (≈ 76 µM) | 0.036 µg/mL (≈ 0.0667 µM) | 0.024 µg/mL (≈ 0.0445 µM) | 0.027 µg/mL (≈ 0.05 µM) | 0.017 µg/mL (≈ 0.0315 µM) | Water solubility compared to the comparison substances [1]: greatly improved water solubilities
O=C(NCCCl)Oc1cccc(N2CCN(C(=O)c3c4ccccc4nc4ccccc34)CC2)c1 [Compound 30, 3-[4-(Acridin-9-ylcarbonyl)piperazin-1-yl]phenyl (2-chloroethyl)carbamate] |  | 0.029 µg/mL (≈ 0.0593 µM) | 0.026 µg/mL (≈ 0.0532 µM) | 0.025 µg/mL (≈ 0.0511 µM) | 0.019 µg/mL (≈ 0.0389 µM) | 
Mono-{3-[4-(acridin-9-ylcarbonyl)piperazin-1-yl]phenyl}glutarate [Compound 22] |  |  |  |  |  | XTT proliferation assay, EC50, KB/Hela ([2]; KB/HeLa cells, 45 h incubation): 0.01 µg/mL; XTT proliferation assay, EC50, SF-268 ([3]; SF-268 cells, 45 h incubation): 0.019 µg/mL; XTT proliferation assay, EC50, NCI-H460 [4, 6]: 0.016 µg/mL; XTT proliferation assay, EC50, SKOV3 ([5]; SKOV-3 cells, 45 h incubation): 0.007 µg/mL

Continued, in another order:

solubility [1] | EC50 ([2]; KB/HeLa cells, 45 h incubation) | EC50 ([3]; SF-268 cells, 45 h incubation) | EC50 [4, 6] | EC50 ([5]; SKOV-3 cells, 45 h incubation) | Compound | further results
1.07 µg/mL (≈ 2.8 µM) |  |  |  |  | Cc1cccc(N2CCN(C(=O)c3c4ccccc4nc4ccccc34)CC2)n1 [Acridin-9-yl-[4-(6-methylpyridin-2-yl)piperazin-1-yl]methanone, reference compound] | 
83.9 µg/mL (≈ 202 µM) |  |  |  |  | Cc1cccc(N2CCN(C(=O)c3c4ccccc4nc4cc(O)cc(O)c34)CC2)n1 [Compound 1, (1,3-Dihydroxyacridin-9-yl)-[4-(6-methylpyridin-2-yl)piperazin-1-yl]-methanone] | Water solubility compared to the comparison substances [1]: greatly improved water solubilities
 | 0.02 µg/mL (≈ 0.0252 µM) | 0.025 µg/mL (≈ 0.0315 µM) | 0.026 µg/mL (≈ 0.0328 µM) | 0.013 µg/mL (≈ 0.0164 µM) | O=C(Oc1cccc(N2CCN(C(=O)c3c4ccccc4nc4ccccc34)CC2)c1)Oc1cccc(N2CCN(C(=O)c3c4ccccc4nc4ccccc34)CC2)c1 [Compound 19, bis-{3-[4-(Acridin-9-ylcarbonyl)piperazin-1-yl]phenyl}carbonate] | 
115 µg/mL (≈ 203 µM) | 0.024 µg/mL (≈ 0.0424 µM) | 0.027 µg/mL (≈ 0.0477 µM) | 0.025 µg/mL (≈ 0.0442 µM) | 0.018 µg/mL (≈ 0.0318 µM) | CN1CCN(C(=O)CCC(=O)Oc2cccc(N3CCN(C(=O)c4c5ccccc5nc5ccccc45)CC3)c2)CC1 [Compound 21, 3-[4-(Acridin-9-ylcarbonyl)piperazin-1-yl]phenyl 4-(4-methylpiperazin-1-yl)-4-oxobutyrate] | Water solubility compared to the comparison substances [1]: greatly improved water solubilities
 | 0.04 µg/mL (≈ 0.0551 µM) | 0.048 µg/mL (≈ 0.0661 µM) | 0.072 µg/mL (≈ 0.0992 µM) | 0.023 µg/mL (≈ 0.0317 µM) | CC1(C)OCC(C2OC3OC(C)(C)OC3C2OCCCCC(=O)Oc2cccc(N3CCN(C(=O)c4c5ccccc5nc5ccccc45)CC3)c2)O1 (centres unmarked) [Compound 24, 3-[4-(Acridin-9-ylcarbonyl)piperazin-1-yl]phenyl 5-[5-(2,2-dimethyl-[1,3]-dioxolan-4-yl)-2,2-dimethyltetrahydrofuro[2,3-d][1,3]dioxol-6-yloxy]-pentanoate] | 
215 µg/mL | 0.019 µg/mL | 0.029 µg/mL | 0.035 µg/mL | 0.014 µg/mL | O=C(CCC(=O)OC1C(O)C(O)OC(CO)C1O)Oc1cccc(N2CCN(C(=O)c3c4ccccc4nc4ccccc34)CC2)c1 (centres unmarked) [Compound 25, 3-[4-(Acridin-9-ylcarbonyl)piperazin-1-yl]phenyl 2,3,5-trihydroxy-6-hydroxymethyltetrahydropyran-4-yl succinate] | Water solubility compared to the comparison substances [1]: greatly improved water solubilities
 | 0.042 µg/mL (≈ 0.065 µM) | 0.047 µg/mL (≈ 0.0728 µM) | 0.054 µg/mL (≈ 0.0836 µM) | 0.026 µg/mL (≈ 0.0403 µM) | O=C(CCCCOC1C(O)C(O)OC(CO)C1O)Oc1cccc(N2CCN(C(=O)c3c4ccccc4nc4ccccc34)CC2)c1 (centres unmarked) [Compound 26, 3-[4-(Acridin-9-ylcarbonyl)piperazin-1-yl]phenyl 5-(2,3,5-trihydroxy-6-hydroxymethyltetrahydropyran-4-yloxy)pentanoate] | 
